# Experimental data: article PMC12345401, “The mRNA Translation Inhibitor Vioprolide A Prevents Inflammatory Pain‐Like Behaviour With Limited Action on Already Established Pain‐Like Behaviour in Mice” (European Journal of Pain (London, England), 2025)
# Entries after “also recorded” stand apart in the source; their conditions may differ.
# What was measured:
# C57BL/6N mice [1] = test: CFA-induced paw inflammation, mechanical hypersensitivity; assay type: in vivo, mouse
# Procedure: (§1) Paw withdrawal latencies following mechanical stimulation were assessed using a dynamic plantar aesthesiometer (Ugo Basile, Gemonio, Italy), which compresses a stainless‐steel probe (0.5‐mm diameter) against the plantar surface of the hindpaw through a wire mesh bottom on which the mice are placed. The applied force was increased from 0 to 5 g over a period of 10 s (0.5 g/s ramp) and then remained constant at 5 g for an additional 10 s (total cutoff time, 20 s). An unequivocal paw withdrawal was evaluated as a response. The paw withdrawal latency was calculated as the average of three to four consecutive exposures with at least 20 s in between. The area under the curve was calculated using Prism 10 (Graph Pad) software.
# Paw inflammation was induced by injecting 20 μL of complete Freund's adjuvant (CFA; containing 1 mg/mL heat‐killed Mycobacterium tuberculosis in paraffin oil 85% and mannide monooleate 15%; Sigma‐Aldrich, St. Louis, USA) into the plantar side of a hindpaw (Petersen et al. [2019]). Vioprolide A (0.3, 1 or 3 mg/kg), diclofenac (50 mg/kg; Sigma‐Aldrich, St. Louis, USA), or vehicle (1% DMSO in 0.9% NaCl) was i.p. administered in a volume of 100 μL 24 h after the intraplantar CFA injection. Paw withdrawal latencies following mechanical stimulation were assessed using a dynamic plantar aesthesiometer as described above.
# mice = settings: cited from earlier work; for cytokines (interleukin-1β, interleukin-6, tumour necrosis factor) in peritoneal lavage after zymosan-induced peritonitis: Stark et al. [2019]
# C57BL/6N mice [2] = system: C57BL/6N mice; design: method as in Metzner et al. [2021]; settings: positive control in a previous study; ref Metzner et al. [2021]; cited from earlier work
# rodents = system: rodents; design: method as in earlier work; settings: local treatment, ref Geranton et al. [2009], Jimenez-Diaz et al. [2008], Price et al. [2007]; cited from earlier work
# C57BL/6N mice [3] = test: Zymosan-induced paw inflammation, mechanical hypersensitivity (dynamic plantar aesthesiometer); assay type: in vivo, mouse; settings: 0.3, 1 and 3 mg/kg s.c. 16 h prior to intraplantar zymosan; 1-72 h post-zymosan; vs vehicle
# Procedure: (§2) Paw inflammation was induced by injecting 20 μL of a zymosan A suspension (5 mg/mL in PBS without Ca^2+/Mg^2+, pH 7.4; Sigma‐Aldrich, St. Louis, USA) into the plantar side of a hindpaw (Petersen et al. [2019]). Vioprolide A (0.3, 1 or 3 mg/kg) or vehicle (1% DMSO in 0.9% NaCl) was s.c. administered into the neck in a volume of 100 μL 16 h prior to the intraplantar zymosan injection.
# as §1
# C57BL/6N mice [4] = test: Von Frey filament test in naive mice; assay type: in vivo, mouse; settings: 3 mg/kg s.c. into the neck, 22 and 46 h after administration
# Procedure: Immediately after the vertical pole test, mice were placed on a wire‐mesh platform in Plexiglas cylinders and habituated for approximately 1 h. Von Frey filaments ranging from 0.04 to 4 g (Ugo Basile, Gemonio, Italy) were applied to the plantar surface of a hind paw for 1 s with a force causing the filament to bend. Starting with the lowest force, each filament was applied 10 times with a break of at least 2 min. The number of paw withdrawal reactions per 10 applications was used to calculate the withdrawal frequency (Beaulieu‐Laroche et al. [2020]). Measurements were performed at baseline and 22 and 46 h after vioprolide A or vehicle administration.
# C57BL/6N mice [5] = test: Zymosan-induced paw oedema (plethysmometer); assay type: in vivo, mouse; settings: 0.3, 1 and 3 mg/kg s.c. 16 h prior to intraplantar zymosan; vs vehicle
# Procedure: as §2
# The volume of the hindpaw was measured using a plethysmometer (Ugo Basile, Gemonio, Italy) according to the manufacturer's instructions. The dipping solution contained 0.8–0.9 g/L NaCl in distilled water and 2–3 mL/L wetting compound (Ugo Basile, Gemonio, Italy) to reduce drop and meniscus build‐up. The paw volume was calculated as a mean of three measurements. The area under the curve was calculated using Prism 10 (Graph Pad) software.
# C57BL/6N mice [6] = test: Zymosan-induced peritonitis, dynamic weight bearing; assay type: in vivo, mouse; settings: 0.3 mg/kg s.c. into the neck 16 h prior to i.p. zymosan; DWB 5 h after zymosan; vs vehicle
# Procedure: Acute peritonitis was induced by a single intraperitoneal (i.p.) injection (0.5 mL) of a zymosan A suspension (2 mg/mL in phosphate‐buffered saline (PBS) without Ca^2+/Mg^2+; Sigma‐Aldrich, Steinheim, Germany and Gibco, Darmstadt, Germany) as described (Stark et al. [2019]). Vioprolide A (0.3 mg/kg; kindly provided by the group of Prof. Rolf Müller, Helmholtz Institute for Pharmaceutical Research Saarland (HIPS), Helmholtz Center for Infection Research and Department of Pharmacy, Saarland University, Saarbrücken, Germany) or vehicle (1% DMSO in 0.9% NaCl) was subcutaneously (s.c.) injected into the neck (to prevent direct interaction with the i.p. applied zymosan) in a volume of 100 μL 16 h prior to the zymosan injection. An automated dynamic weight bearing (DWB) device (Bioseb, Boulogne, France) was used to assess the pain‐like behaviour during zymosan‐induced peritonitis. […] The recorded weight distribution was analysed using the DWB software as described (Laux‐Biehlmann et al. [2016]; Stark et al. [2019]). A zone was considered valid when the following parameters were detected: ≥ 0.8 g on one captor with a minimum of two adjacent captors recording ≥ 1.0 g. A time segment was considered valid if ≥ 3 stable pictures were detected (Laux‐Biehlmann et al. [2016]; Stark et al. [2019]). […]
# [7] = Pharmacokinetic profile, plasma (LC-MS); assay type: in vivo; settings: 0.3 mg/kg i.p.
# Procedure: (§3) The pharmacokinetic profile of vioprolide A was determined by staff of Pharmacelsus (Saarbrücken, Germany) in male C57BL/6 mice as described (Balzulat et al. [2024]). A single dose of 0.3 mg/kg vioprolide A (in NaCl 0.9% + 1% DMSO) was i.p. administered, and two blood samples were obtained from each animal retrobulbarly under short isoflurane anaesthesia (at 0.25 and 0.5 h from 3 mice; at 1 and 2 h from 3 mice; and at 4 and 8 h from 3 mice). Immediately after the last blood sample was taken, the animal was euthanised by cervical dislocation, and the brain was collected. Plasma and brain concentrations of vioprolide A were determined by LC–MS analysis. The pharmacokinetic analysis was performed applying a non‐compartment model using the Kinetica 5.0 software (Thermo Scientific, Waltham, USA). All given parameters were obtained by trapezoid area calculation.
# C57BL/6N mice [8] = test: Vertical pole test; assay type: in vivo, mouse; settings: 3 mg/kg s.c. into the neck; naive mice; 20 and 44 h after administration
# Procedure: (§4) For the accelerating rotarod test, mice were placed on a rotarod treadmill (Ugo Basile, Gemonio, Italy) at increasing speed (4–40 rpm over 300 s; cutoff time 300 s) and trained for several consecutive days. Only mice that reached 300 s without falling off during the training sessions were included in the experiment. In the vertical pole test, mice were placed with the head pointing upward on a vertical pole and the time needed to reach the ground was recorded (cutoff time 20 s). After baseline measurements, vioprolide A (3 mg/kg) or vehicle (1% DMSO in 0.9% NaCl) was s.c. administered into the neck and the accelerating rotarod test immediately followed by the vertical pole test was performed 20 and 44 h after drug administration. Three trials per mouse were used for evaluation (Balzulat et al. [2024]).
# C57BL/6N mice [9] = test: Spared nerve injury (SNI)-induced neuropathy, mechanical hypersensitivity; assay type: in vivo, mouse; settings: 0.3 mg/kg i.p. on Day 14 after SNI; observed over 48 h
# Procedure: as §1
# The SNI model was performed as described previously (Bourquin et al. [2006]; Petersen et al. [2019]). Briefly, under isoflurane anaesthesia the tibial and common peroneal branches of the sciatic nerve were ligated and dissected distally. The sural nerve remained intact and the mice developed hypersensitivity in the lateral area of the hindpaw. Vioprolide A (0.3 mg/kg) or vehicle (1% DMSO in 0.9% NaCl) were i.p. administered in a volume of 100 μL 14 days after SNI. Paw withdrawal latencies following mechanical stimulation were assessed using a dynamic plantar aesthesiometer as described above.
# [10] = Pharmacokinetic profile, brain levels (LC-MS); assay type: in vivo; settings: 0.3 mg/kg i.p., mouse brain, over 8 h
# Procedure: as §3
# C57BL/6N mice [11] = test: Accelerating rotarod test; assay type: in vivo, mouse; settings: 3 mg/kg s.c. into the neck; naive mice; 20 and 44 h after administration
# Procedure: as §4
# [12] = male, C57BL/6, ip, mouse plasma
compound,measurement,setting,value
"O=C(O)Cc1ccccc1Nc1c(Cl)cccc1Cl [diclofenac, reference compound]",CFA-induced mechanical hypersensitivity (paw withdrawal latency),"C57BL/6N mice [1]; 50 mg/kg i.p. 24 h after intraplantar CFA, positive control, statistical significance not reached",visibly attenuated
COC(=O)C[C@](O)(CCCC(C)(C)O)C(=O)O[C@@H]1C(OC)=C[C@]23CCCN2CCc2cc4c(cc2[C@H]13)OCO4 [homoharringtonine],"cytokines (interleukin-1β, interleukin-6, tumour necrosis factor) in peritoneal lavage after zymosan-induced peritonitis",mice; ref Burgers et al. [2024],reduced the amount of cytokines
same,pain behaviour during zymosan-induced peritonitis,mice; ref Burgers et al. [2024],ameliorated the pain behaviour
O=C1N[C@@H]2C(=C[C@H](O)[C@@H](O)[C@H]2O)c2cc3c(c(O)c21)OCO3 [narciclasine],"cytokines (interleukin-1β, interleukin-6, tumour necrosis factor) in peritoneal lavage after zymosan-induced peritonitis",mice; ref Burgers et al. [2024],reduced the amount of cytokines
same,visceral pain behaviour in murine peritonitis model,mice; ref Stark et al. [2019],significantly inhibited visceral pain behaviour
CC(C)C[C@H](CN)CC(=O)O [pregabalin],neuropathic pain behaviour in SNI model,C57BL/6N mice [2],attenuated the neuropathic pain behaviour
CO[C@H]1C[C@@H]2CC[C@@H](C)[C@@](O)(O2)C(=O)C(=O)N2CCCC[C@H]2C(=O)O[C@H]([C@H](C)C[C@@H]2CC[C@@H](O)[C@H](OC)C2)CC(=O)[C@H](C)/C=C(\C)[C@@H](O)[C@@H](OC)C(=O)[C@H](C)C[C@H](C)/C=C/C=C/C=C/1C [rapamycin],persistent pain-like behaviour,rodents,attenuated persistent pain‐like behaviour
C/C=C1/NC(=O)[C@@H]2CSC(=N2)[C@@H]2C[C@@H](C)N2C(=O)[C@@H](CC(C)C)NC(=O)[C@H](C)NC(=O)[C@@H](O)COC(=O)[C@H](C(C)C)N(C)C(=O)[C@H]([C@@H](C)O)NC(=O)[C@@H]2CCCCN2C1=O [vioprolide A],"zymosan-induced mechanical hypersensitivity (paw withdrawal latency, time course and AUC)",C57BL/6N mice [3],significantly ameliorated; also recorded: significantly reduced
same,"mechanical sensitivity, paw withdrawals to von Frey filaments",C57BL/6N mice [4],did not alter mechanical sensitivity
same,"zymosan-induced paw edema (paw volume, time course and AUC)",C57BL/6N mice [5],decreased in a dose‐dependent manner; also recorded: significantly reduced
same,zymosan-induced weight shift towards the frontpaws (visceral nociceptive behaviour),C57BL/6N mice [6],significantly ameliorated; also recorded: significantly lower
same,%AUCextra (extrapolated part of AUC0-inf),[7]; mouse plasma,3.9%
same,t 1/2z (half-life of the terminal slope),[7]; mouse plasma,1.0 h
same,t z (time of the last quantifiable sample),[7]; mouse plasma,4.0 h
same,concentration at 4 h,"[7]; male, C57BL/6, intraperitoneal, mouse plasma, read-out: C z (last analytically quantifiable concentration)",0.1 ng/mL
same,AUC(0-t),[7]; [12],3.6 ng·h/mL
same,Cmax,[7]; [12],7.8 ng/mL
same,Tmax,[7]; [12],0.25 h
same,AUC(0-inf),"[7]; male, C57BL/6, ip, mouse plasma, extrapolated to infinity",3.8 ng·h/mL
same,CL/F,"[7]; male, C57BL/6, ip, mouse plasma, read-out: CL/f (total body clearance after extravascular administration) (converted)",1330 mL/min/kg
same,Vd/F,"[7]; male, C57BL/6, ip, mouse plasma, read-out: V z/f (volume of distribution after extravascular administration)",116 L/kg
same,half-life,"[7]; male, C57BL/6, mouse, plasma, ip, 0.3 mg/kg, read-out: t 1/2z (half-life of the terminal slope) (converted)",~1 h
same,"motor function, vertical pole test",C57BL/6N mice [8],did not affect; also recorded: did not impair motor function
same,SNI-induced mechanical hypersensitivity (paw withdrawal latency),C57BL/6N mice [9],did not affect; also recorded: failed to affect the mechanical hypersensitivity
same,brain level,[10],not detected in the brain
same,"motor function, time on accelerating rotarod",C57BL/6N mice [11],did not affect the time spent on the rotarod; also recorded: did not impair motor function
same,CFA-induced mechanical hypersensitivity (paw withdrawal latency),"C57BL/6N mice [1]; 0.3, 1 and 3 mg/kg i.p. 24 h after intraplantar CFA, observed over 24 h",failed to affect the mechanical hypersensitivity; also recorded: none of the applied doses of vioprolide A affected
